Patent US6737383B1, “Herbicidal oxadiazolidines” (priority 1999, dated 2004)

Columns and labels:
[1] = test system: blackgrass; experiment: Test B pre/postemergence blackgrass; format: in vivo, Alopecurus myosuroides
Procedure, shortened: (§1)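 Response is a visual 0-to-10 score relative to untreated plants, where 0 means no effect and 10 means complete control, taken twelve to sixteen days after application. Treatments went onto soil at planting and onto foliage of 1- to 4-leaf plants, using a surfactant-containing non-phytotoxic solvent.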

[2] = test system: smallflower flatsedge; experiment: Test B flood test smallflower flatsedge; format: in vivo, Cyperus difformis
Procedure, shortened: (§2)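 Flood test on plants grown to the 2-leaf stage; treated plants kept in greenhouse twelve to sixteen days, then visually rated against controls on a 0 (no effect) to 10 (complete control) scale.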

[3] = test system: velvetleaf; experiment: Test B pre/postemergence velvetleaf; format: in vivo, Abutilon theophrasti; conditions: for Plant response rating, Velvetleaf: scale of 0 to 10 where 0 is no effect and 10 is complete control
Procedure, shortened: as §1

[4] = test system: morningglory; experiment: Test B pre/postemergence morningglory; format: in vivo, Ipomoea hederacea; conditions: for Plant response rating, Morningglory: scale of 0 to 10 where 0 is no effect and 10 is complete control
Procedure, shortened: as §1

[5] = test system: corn; experiment: Test B pre/postemergence corn; format: in vivo, Zea mays
Procedure, shortened: as §1

[6] = test system: cocklebur; experiment: Test B pre/postemergence cocklebur; format: in vivo, Xanthium strumarium
Procedure, shortened: as §1

[7] = test system: purple nutsedge; experiment: Test B pre/postemergence purple nutsedge; format: in vivo, Cyperus rotundus; conditions: for Plant response rating, Nutsedge: scale of 0 to 10 where 0 is no effect and 10 is complete control
Procedure, shortened: as §1

[8] = test system: crabgrass; experiment: Test B pre/postemergence crabgrass; format: in vivo, Digitaria sanguinalis
Procedure, shortened: as §1

[9] = test system: rice; experiment: Test B flood test rice; format: in vivo, Oryza sativa
Procedure, shortened: as §2

[10] = test system: wild oat; experiment: Test B pre/postemergence wild oat; format: in vivo, Avena fatua; conditions: for Plant response rating, Wild oats: scale of 0 to 10 where 0 is no effect and 10 is complete control
Procedure, shortened: as §1

[11] = test system: giant foxtail; experiment: Test B pre/postemergence giant foxtail; format: in vivo, Setaria faberii
Procedure, shortened: as §1

[12] = test system: wheat; experiment: Test B pre/postemergence wheat; format: in vivo, Triticum aestivum; conditions: for Plant response rating, Wheat: scale of 0 to 10 where 0 is no effect and 10 is complete control
Procedure, shortened: as §1

[13] = test system: duck salad; experiment: Test B flood test duck salad; format: in vivo, Heteranthera limosa
Procedure, shortened: as §2

[14] = test system: bedstraw; experiment: Test B pre/postemergence bedstraw; format: in vivo, Galium aparine; conditions: Postemergence
Procedure, shortened: as §1

[15] = test system: surinam grass; experiment: Test B pre/postemergence surinam grass; format: in vivo, Brachiaria decumbens
Procedure, shortened: as §1

[16] = test system: bamyardgrass; experiment: Test B flood test barnyardgrass; format: in vivo, Echinochloa crus-galli
Procedure, shortened: as §2

[17] = Postemergence, Rate 250 g/ha, scale 0 to 10
[18] = Postemergence, Rate 500 g/ha, scale of 0 to 10 where 0 is no effect and 10 is complete control
[19] = Preemergence, Rate 62 g/ha, scale of 0 to 10 where 0 is no effect and 10 is complete control
[20] = Preemergence, Rate 125 g/ha, scale of 0 to 10 where 0 is no effect and 10 is complete control
[21] = Preemergence, Rate 250 g/ha, scale 0 to 10, 0 is no effect, 10 is complete control
[22] = Preemergence, Rate 500 g/ha, scale 0 to 10, 0 is no effect, 10 is complete control
[23] = Rate 62 g/ha, Postemergence, scale 0 to 10, 0 no effect, 10 complete control
[24] = Rate 125 g/ha, Postemergence, scale 0 to 10, 0 is no effect, 10 is complete control
[25] = Rate 62 g/ha, flood test species, Pre-emergence, visual evaluation after twelve to sixteen days
[26] = Rate 125 g/ha, under heading Pre-emergence, flood test species, visual evaluation after twelve to sixteen days
[27] = Rate 250 g/ha, Pre-emergence (flood test species), scale 0 to 10, 0 is no effect, 10 is complete control
[28] = Rate 500 g/ha, Pre-emergence, flood test species, scale 0 to 10 (0 no effect, 10 complete control)

CC(C)N(C(=O)n1oc(=O)n(C(C)C#N)c1=O)c1ccc(Cl)cc1 (stereo not shown) [Compound 451]
1: Morningglory plant response rating [4, 17] | Morningglory plant response rating [4, 23] | Morningglory plant response rating [4, 24] | Crabgrass plant response rating [8, 21]
0: Plant response rating, Blackgrass [1, 19] | Plant response rating, Blackgrass [1, 20] | Blackgrass plant response rating [1, 21] | Blackgrass plant response rating [1, 22] | Blackgrass plant response rating [1, 23] | Blackgrass plant response rating [1, 24] | Plant response rating, S. Flatsedge (0 to 10 scale, 0 is no effect, 10 is complete control) [2, 25] | S. Flatsedge plant response rating (0 to 10 scale, 0 is no effect, 10 is complete control) [2, 26] | S. Flatsedge plant response rating [2, 27] | S. Flatsedge plant response rating [2, 28] | Velvetleaf plant response rating [3, 17] | Plant response rating, Velvetleaf ([3]; Preemergence, Rate 62 g/ha) | Plant response rating, Velvetleaf ([3]; Preemergence, Rate 125 g/ha) | Velvetleaf plant response rating [3, 21] | Velvetleaf plant response rating [3, 22] | Velvetleaf plant response rating [3, 23] | Velvetleaf plant response rating [3, 24] | Plant response rating, Morningglory ([4]; Preemergence, Rate 62 g/ha) | Plant response rating, Morningglory ([4]; Preemergence, Rate 125 g/ha) | Morningglory plant response rating [4, 21] | Morningglory plant response rating [4, 22] | Corn plant response rating [5, 17] | Corn plant response rating [5, 18] | Plant response rating, Corn [5, 19] | Plant response rating, Corn [5, 20] | Corn plant response rating [5, 21] | Corn plant response rating [5, 22] | Corn plant response rating [5, 23] | Corn plant response rating [5, 24] | Cocklebur plant response rating [6, 17] | Cocklebur plant response rating [6, 18] | Plant response rating, Cocklebur [6, 19] | Plant response rating, Cocklebur [6, 20] | Cocklebur plant response rating [6, 21] | Cocklebur plant response rating [6, 22] | Cocklebur plant response rating [6, 23] | Cocklebur plant response rating [6, 24] | Nutsedge plant response rating [7, 17] | Plant response rating, Nutsedge ([7]; Preemergence, Rate 62 g/ha) | Plant response rating, Nutsedge ([7]; Preemergence, Rate 125 g/ha) | Nutsedge plant response rating [7, 22] | Nutsedge plant response rating [7, 23] | Nutsedge plant response rating [7, 24] | Plant response rating, Crabgrass [8, 19] | Plant response rating, Crabgrass [8, 20] | Crabgrass plant response rating [8, 23] | Crabgrass plant response rating [8, 24] | Plant response rating, Rice (0 to 10 scale, 0 is no effect, 10 is complete control) [9, 25] | Rice plant response rating (0 to 10 scale, 0 is no effect, 10 is complete control) [9, 26] | Rice plant response rating [9, 27] | Rice plant response rating [9, 28] | Wild oats plant response rating [10, 17] | Plant response rating, Wild oats ([10]; Preemergence, Rate 62 g/ha) | Plant response rating, Wild oats ([10]; Preemergence, Rate 125 g/ha) | Wild oats plant response rating [10, 21] | Wild oats plant response rating [10, 22] | Wild oats plant response rating [10, 23] | Wild oats plant response rating [10, 24] | Plant response rating, Giant foxtail [11, 19] | Plant response rating, Giant foxtail [11, 20] | Giant foxtail plant response rating [11, 23] | Giant foxtail plant response rating [11, 24] | Wheat plant response rating [12, 17] | Plant response rating, Wheat ([12]; Preemergence, Rate 62 g/ha) | Plant response rating, Wheat ([12]; Preemergence, Rate 125 g/ha) | Wheat plant response rating [12, 21] | Wheat plant response rating [12, 22] | Wheat plant response rating [12, 23] | Wheat plant response rating [12, 24] | Plant response rating, Ducksalad (0 to 10 scale, 0 is no effect, 10 is complete control) [13, 25] | Ducksalad plant response rating (0 to 10 scale, 0 is no effect, 10 is complete control) [13, 26] | Ducksalad plant response rating [13, 27] | Ducksalad plant response rating [13, 28] | Bedstraw plant response rating ([14]; Rate 62 g/ha, scale 0 to 10, 0 no effect, 10 complete control) | Bedstraw plant response rating ([14]; Rate 125 g/ha, scale 0 to 10, 0 is no effect, 10 is complete control) | B. signalgrass plant response rating ([15]; Postemergence, Rate 250 g/ha, scale 0 to 10, 0 no effect, 10 complete control) | Plant response rating, B. signalgrass [15, 19] | Plant response rating, B. signalgrass [15, 20] | B. signalgrass plant response rating [15, 21] | B. signalgrass plant response rating [15, 22] | B. signalgrass plant response rating [15, 23] | B. signalgrass plant response rating [15, 24] | Plant response rating, Barnyardgrass (0 to 10 scale, 0 is no effect, 10 is complete control) [16, 25] | Barnyardgrass plant response rating (0 to 10 scale, 0 is no effect, 10 is complete control) [16, 26] | Barnyardgrass plant response rating [16, 27] | Barnyardgrass plant response rating [16, 28]
3: Giant foxtail plant response rating [11, 17]
7: Crabgrass plant response rating [8, 22] | Giant foxtail plant response rating [11, 18] | Giant foxtail plant response rating [11, 22]
4: Crabgrass plant response rating [8, 17] | Giant foxtail plant response rating [11, 21]
2: Blackgrass plant response rating [1, 17] | B. signalgrass plant response rating [15, 18]
6: Blackgrass plant response rating [1, 18] | Crabgrass plant response rating [8, 18]
